# Assay results reported in US8293776B2, “Compositions and methods for treating inflammatory conditions of the bowel” (The Regents of the University of Michigan, priority 2008, dated 2012).
# pIC50: −log10 of the molar value. “Also recorded” adds a separate entry of the source.
# Columns and labels:
# [1] = system: mucosal RNA of regulatory factors associated with inflammatory bowel disease; test: Mucosal RNA of regulatory factors by RT-PCR, DSS mice, oral administration; assay type: in vivo; settings: oral therapy, 7 days
# Description: Experiments were conducted during development of embodiments of the invention in order to determine if AT1a antagonists or derivatives thereof could treat signs and symptoms of inflammatory bowel disease (e.g., inflammatory conditions of the intestine) when administered orally. Materials and methods were used as described in Example 3 with the following exceptions. AT1a antagonists or derivatives thereof were suspended in water. Each dose was given via the oral route using a blunt tipped needle by gavage directly into the stomach of each mouse. Dosing was daily in a single administration over a period of seven days. Realtime PCR was utilized to measure the abundance of mucosal RNA of several regulatory factors associated with inflammatory bowel disease. Factors studied were: TNF-α(tumor necrosis factor-alpha); interleukin-1b (IL-1b); IL-6; IL-10; transforming growth factor-beta (TGF-b) and Foxp3 (a T-cell regulatory factor). […] Realtime PCR was also utilized to measure the abundance of mucosal RNA of several additional regulatory factors associated with inflammatory bowel disease. IL-12p40, the regulatory factor for interleukin-12 (IL-12), and a key regulator for the up-regulation of interferon gamma (IFN-g); IFN-g; […]
# [2] = mouse, in vivo
# From the text: The scores were compared to the Naïve cohort.
# Colonic mucosal and mesenteric blood flow measurements.
# [3] = Blood pressure and heart rate by tail-cuff in DSS mice after transanal treatment; assay type: in vivo, C57BL/6 mice; settings: day 6 of DSS; for systolic blood pressure change (Delta BP, post − pre treatment): 1 hour before and 2 hr after treatment; for heart rate change: compared with naïve group
# From the text: Measurements of Blood Pressure and Heart Rate. […] The system was designed to perform all functions automatically, including a programmable routine of cuff inflation and deflation, analysis and assignment of pulse rate and blood pressure, and recording of data electronically. To avoid variations in blood pressures, results were expressed using % Delta Blood Pressure (percent change in systolic pressures prior to and after treatment). Heart rate was also expressed as the change in rate before and after final dosing of […] drug/placebo.
# AT1a receptor [4] = settings: cited from earlier work
# DSS colitis mice = test: DSS colitis in mice, transanal treatment: body weight, fecal blood, histology, apoptosis; assay type: in vivo, C57BL/6 mice; settings: for weight loss after 7 days (body weight change, FIG. 10B): 2.5% DSS, DCL and Losartan 10× (2,500 μg per dose), Candesartan 1× (250 μg per dose), mean±SD, placebo −15.81±6.59; for weight loss after 7 days (body weight change, FIG. 10B) / period before developing heme positive stools: transanal daily; for weight loss after 1 week (percentage change from baseline body weight) / period before developing heme positive stools: DSS; for weight loss after 1 week (percentage change from baseline body weight): transanal daily 7 days, placebo 15.8±6.5, P<0.001 versus placebo; for period before developing heme positive stools: placebo 5.64±1.22 days
# Description: Animals. Specific pathogen-free male, 8-week old C57BL/6 mice (Taconic Farms Inc, Germantown, N.Y.) were maintained in a 12-h night rhythm at 23° C. and a relative humidity of 40-60%. Animals were fed standard rodent chow (LabDiet 5001Rodent Diet, PMI Nutrition International, LLC, Brentwood, Mo.) ad libitum. All experiments were approved by the University Committee on Use and Care of Animals at the University of Michigan. Experimental colitis design. Dextran sodium sulfate (DSS) was administered through drinking water for 7 days. Mice were randomly divided into 5 groups. In the DSS+placebo group, mice were given […] (total volume 0.25 ml) each day as a control. […] A[…]-A were given at 10-fold higher doses (losartan and […]: 10 mg/kg/day, candesartan: 1 mg/kg/day) than typically given systemically, and daily dosing was continued for 7 days. The study drugs were administered using a blunt needle via the […] route. Testing conducted during development of embodiments of the invention characterized that this amount of drug evenly coated the entire colon. A separate group of mice contained naive mice as an additional control group which received plain drinking water ad libitum, and received only water (0.25 ml, […]) without AT 1 aR-A. Harvesting. Mice were euthanized 7 days after DSS by carbon dioxide asphyxiation. […] Formalin preserved sections of distal colon were preserved in paraffin, sectioned transversely (5 μm) and stained with hematoxylin and eosin (H&E). The remaining colon was immediately processed for mucosal cell isolation. Assessment of colitis. The body weight of each mouse, stool characteristics, and intestinal bleeding were recorded. All animals were evaluated daily. Occult bleeding was tested using a hemoccult-card test (Beckman Coulter Inc, Fullerton, Calif.). Histologic grading of colitis was performed in a masked fashion (investigator blinded to the study group) according to previously described methods. (See, e.g., Spencer et al., et al. Dig Dis Sci 2007; 52:1060-70). Crypt shortening and distortion, together with inflammatory infiltrative thickening of the lamina propria, were assigned a score 0 (normal) through 4 (complete loss of crypt, ulceration, and severe thickening of lamina propria). The individual colitis score (0-4) from four quadrants of a left-sided colonic section were summed, such that the maximum score for a given section was 16, and the minimum score was 0. The mean of at least 2 sections were assessed in this manner for each mouse. Epithelial cell apoptosis assays. A terminal deoxynucleotidyl transferase biotin-dUTP nick end labeling (TUNEL) staining method was used to detect apoptosis, according to manufacturer's instructions (APOPTAG PLUS Peroxidase InSitu Apoptosis Detection Kit, Chemicon International Inc, Temecula, Calif.), with slight modification. Slides were incubated with only one-third of the recommended concentration of TdT enzyme, in order to avoid over-staining. Assessment of apoptosis consisted of separate counting of all TUNEL positive EC in all well oriented crypts and villi separately, and dividing the total number of counted apoptotic cells per number of analyzed crypts and villi, respectively. Apoptotic Index in the region of villi is expressed as the number of TUNEL positive cells per one villus. The addition of both crypt and villus apoptotic indices is expressed as the apoptotic index per crypt-villus complex (at 20× magnification).
# [5] = in vivo; cited from earlier work
# AT1a receptor [6] = settings: read-out: IC50 against the binding of Ang II to the AT1a receptor; cited from earlier work
# Ang I-infused dogs = settings: i.v., 1 mg/kg; cited from earlier work
# AT1a receptor [7] = target: T1, AT1a receptor (Rattus norvegicus, UniProt P25095); test: Ang II-dependent NF-κB-luciferase reporter assay in HepG2-AR cells; assay type: cell-based; settings: Ang II 1 μM, 16 hours, Ang II alone = 100% induction, read-out: inhibition of NF-κB activation
# T1 construct: expressed in transfected cells; host or cells: HepG2 (HepG2-AR), stably transfected
# T1 sequence (P25095 1-359): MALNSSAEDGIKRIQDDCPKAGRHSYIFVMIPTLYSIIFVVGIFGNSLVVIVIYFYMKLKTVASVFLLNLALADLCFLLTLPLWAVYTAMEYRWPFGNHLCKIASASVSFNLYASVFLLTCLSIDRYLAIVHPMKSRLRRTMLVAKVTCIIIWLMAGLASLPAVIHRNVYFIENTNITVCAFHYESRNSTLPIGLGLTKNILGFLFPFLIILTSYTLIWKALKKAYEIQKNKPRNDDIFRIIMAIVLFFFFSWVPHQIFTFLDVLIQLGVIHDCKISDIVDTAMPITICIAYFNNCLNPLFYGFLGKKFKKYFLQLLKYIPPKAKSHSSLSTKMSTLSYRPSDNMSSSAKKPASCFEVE
# From the text: In vitro assessment of AT1aR antagonism. […] This model makes use of the fact that Ang II-dependent stimulation of the AT1a receptor results in rapid activation of the NF-κB transcription factor. In this model, HepG2-AR cells, which stably express the AT1a receptor, were transiently transfected with an NF-κB-luciferase reporter plasmid and a control renilla plasmid (to correct for transfection efficiency). […] Cells were harvested and the luciferase/renilla ratio determined using the Promega Dual Luciferase Assay Kit. […] Loss of Ang II-dependent luciferase induction (measured by luminometer; LMax; Molecular Devices), due to the presence of receptor blockade was then calculated and used to indicate the extent of successful blockade of the AT1a receptor signaling pathway.
# HepG2-AR cells, which stably express the AT1a receptor, were transiently transfected with an NF-κB-luciferase reporter plasmid and a control renilla plasmid (to correct for transfection efficiency). […] Cells were harvested and the luciferase/renilla ratio determined using a luciferase assay kit (e.g., Promega Dual Luciferase Assay Kit). […] The fold induction in the presence of varying doses of inhibitor was then converted to a percentage of this maximal induction.
smiles,measurement,setting,value
"CCCCc1ncc(CO)n1Cc1ccc(-c2ccccc2-c2nn[nH]n2)cc1 [DCL, des-chloro losartan]",mucosal RNA of ADAM17,[1],marked decline in ADAM17
same,colonic blood flow at the mucosal level,[2],failed to change
same,mesenteric blood flow,[2],failed to change
same,"systolic blood pressure change (Delta BP, post − pre treatment)",[3],did not significantly change BP; also recorded: no change in systolic blood pressure
same,heart rate change,[3],not significantly different
same,receptor blockade function compared with losartan,AT1a receptor [4],nearly the same receptor blockade function as losartan
same,"weight loss after 7 days (body weight change, FIG. 10B)",DSS colitis mice,−2.02±4.34%
same,weight loss after 1 week (percentage change from baseline body weight),DSS colitis mice,2.02±4.34%
same,period before developing heme positive stools,DSS colitis mice,7.00 ± 1.4 days
same,oral activity,[5],lacks oral activity
CCOc1nc2cccc(C(=O)O)c2n1Cc1ccc(-c2ccccc2-c2nnn[nH]2)cc1 [candesartan],colonic blood flow at the mucosal level,[2],0.92±0.20
same,mesenteric blood flow,[2],1.56±0.33
same,"systolic blood pressure change (Delta BP, post − pre treatment)",[3],decline in systolic BP
same,"systolic blood pressure change (Delta BP, post − pre treatment)",[3]; listed as Candesartan,resulted in a decline
same,"systolic blood pressure change (Delta BP, post − pre treatment)",[3]; listed as candasartan,significant decline in blood pressure
same,heart rate change,[3],declined significantly
same,"weight loss after 7 days (body weight change, FIG. 10B)",DSS colitis mice,−0.63±1.63%
same,weight loss after 1 week (percentage change from baseline body weight),DSS colitis mice,0.63±1.63%
same,period before developing heme positive stools,DSS colitis mice,8.0 ± 0.0 days
CCCCc1nc(Cl)c(CO)n1Cc1ccc(-c2ccccc2-c2nn[nH]n2)cc1 [losartan],pIC50,AT1a receptor [6],7.30
same,"mucosal RNA of IL-12p40, IFN-g, IL-17, AT1aR and ADAM17",[1],marked decline in several of these factors
same,colonic blood flow at the mucosal level,[2],0.88±0.32
same,mesenteric blood flow,[2],1.97±0.58
same,"systolic blood pressure change (Delta BP, post − pre treatment)",[3],significant decline in blood pressure
same,"systolic blood pressure change (Delta BP, post − pre treatment)",[3]; listed as Losartan,decline in systolic BP; also recorded: resulted in a decline
same,heart rate change,[3],not significantly different
same,time a ≧20 mmHg drop in mean arterial blood pressure (MABP) was maintained,Ang I-infused dogs,30 min
same,"weight loss after 7 days (body weight change, FIG. 10B)",DSS colitis mice,0.07±2.50%
same,weight loss after 1 week (percentage change from baseline body weight),DSS colitis mice,0.07±2.50%
same,period before developing heme positive stools,DSS colitis mice,6.8 ± 2.7 days
same,inhibition at 60 µM,AT1a receptor [7],90%
